The test system of one data set is Pacific oyster larvae. Kind of data set: Electroporation of oyster sperm, GUS as reporter gene. The format is in vivo, Crassostrea gigas. Here is the method: Mature oysters (Crassostrea gigas) were obtained from local hatcheries in Tasmania and New South Wales, and held in artificial seawater at 10° C. until required. Eggs were collected from 2-3 females by stripping the gonads and were pooled, rinsed on a 20 μm mesh, and left to condition in artificial sea water for 2 h. Sperm were stripped from male gonads, diluted to approximately 10,000 gametes/μl, and used immediately for electroporation-mediated nucleic acid delivery. Plasmid DNA (50 μg/ml) or double-stranded RNA (dsRNA; 1 μg/ml) was delivered into 1×10^6 sperm using a BioRad Gene Pulser II electroporator in 0.2 cm gap electroporation cuvettes. Sperm were subjected to a single electroporation pulse (50 V, 100% modulation, 10 kHz, 12.5 msec) and immediately mixed with 5000 oocytes. Fertilized embryos and developing larvae were reared at 20° C. in artificial seawater containing 0.1 μg/ml chloramphenicol. Surviving larvae were counted after 24 h development. For experiments in which the Drosophila melanogaster heat shock promoter was used to drive expression of the delivered genes, a 1 h heat shock at 37° C. was provided either at 2 h or 18 h post fertilization, and development was then permitted to proceed at 20° C.
Transfection efficiencies were also assessed in a second set of experiments that examined delivery of pHSP-GUS construct (SEQ ID NO:21). The pHSP-GUS construct was made in a two step fashion. First, the D. melanogaster heat shock promoter and terminator were isolated from the pCaSpeR-hs plasmid (Thummel and Pirrotta, 1992, Drosophila Information Service 71: 150) by PCR using the two primers: […]
GUS activity in these experiments was measured using a fluorometric assay as previously described (Jefferson, R A 1987).

The next data set has as its system HoxCG1. Kind of data set: Reversible arrested oyster larval development with tetracycline-responsive plasmid. To be noted: 72 hours. In kind it is in vivo. An excerpt:
The second Sterile Feral Construct tested for oysters, expresses the tTA under the Drosophila HSP. The tTA then drives expression of red fluorescent protein and double stranded oyster Hox via the TRE. Three separate fragments were ligated together to form this construct. The first fragment was obtained by digestion of pBiT(dHSP)-EGFP, (Seq ID NO:19), with HindIII and NheI followed by gel purification of the appropriate fragment containing the Drosophila HSP promoter. The second fragment was obtained by digesting pBiT(dHSP)-EGFP with NotI and MluI followed by gel purification of the appropriate fragment containing the TRE. The third fragment was obtained by digesting pHSP-oHoxDS/BH with MluI and. SpeI and gel purifying the appropriate fragment containing the 510 bp fragment of the zBMP2 cDNA from sequence 301-810 in the published cDNA sequence (Lee et al., 1998). The fourth fragment was obtained by firstly subcloning into pGEM3zf a KpnI/XbaI fragment containing the coding region of red fluorescent protein (RFP) that was excised from pDsRed1-N1 (Clontech, PT3405-5) vector. The resulting plasmid was then subjected to digestion with HindIII and PspOMI and the appropriate fragment containing the coding region of RFP was then gel purified from this reaction. […]

A further data set concerns HoxCG1 gene. Kind of data set: Arrested development of oyster embryos transfected with hairpin dsRNA plasmid. In kind it is in vivo. Here is the method:
In vivo expression of dsRNA was achieved by transfecting oyster larvae with the pBiT(dHSP)-RFP-oHoxDS/BH plasmid (FIG. 21; SEQ ID NO:20), which contains the heat inducible promoter (PHSP70) from D. melanogaster driving the expression of a hairpin RNA molecule specific to the HoxCG1 gene. The construct was prepared as follows. SEQ ID NO:23 (AGAL ref #: NM99/09101) was used as a template to generate a PCR fragment using the following primers: […]
Oyster sperm were transfected with the DNA using electroporation, and oocytes were fertilized and larvae allowed to develop for 96 hours. Embryos were heat shocked for one hour at 3 hours post fertilization to induce transcription of the dsRNAs.

The next data set has as its system goosecoid. Kind of data set: Cotransfection of blocker plasmids with pSFM 6 (goosecoid fused to RFP) in P19-pSFM 7 cells. The format is cell-based, mouse. To be noted: transiently cotransfected with pSFM 6. Here is the method: (§1) Fluorescent and transmitted light images were acquired using a CCD camera with a microscope. […] The luminescence assays were conducted by using a dark 96 well plate was done by Victor2 from Wallac or by Topcount NXT from Can berra Packard.
The first stage for testing blocker constructs is to set up an appropriate cell system to detect expression of reporter constructs. Initially, either pdsRED-N1 (CMV promoter RFP), pSFM 6 (CMV promoter goosecoid cDNA fused to RFP) or pSFM 24 (TRE EGFP) were transfected into P19-pSFM 7 cells to test the expression patterns of the EGFP, RFP and goosecoid-fused to RFP proteins (FIG. 37). […] In these cases, RFP expression fused to goosecid in the nucleus is expected to be inhibited in the presence of an appropriate blocker.
In order to assess various antisense and dsRNA blockers, pSFM 6 (CMV promoter goosecoid fused to RFP) was transiently cotransfected into the P19-pSFM 7 (Goosecoid promoter TET/OFF) cells along with either pSFM 5 (TRE promoter dsRNA goosecoid), pSFM 8, (CMV promoter antisense goosecoid), pSFM 9 (TRE promoter antisense goosecoid) or pSFM 24 (TRE promoter EGFP). […] There are several potential reasons for the absence of RNA blocker effects. First, antisense and dsRNA blockers may not be expressed at levels high enough to effectively interfere with the target mRNA molecules. Secondly, there may be cellular mechanisms in mammals that recognize and interfere with such constructs. Thirdly, the RNA inhibitory molecules may not be able to access and block the RNA target.

Data set [1] concerns P19-pSFM 7 cells. Kind of data set: Luciferase activity of reporter plasmids transiently transfected in P19-pSFM 7 cells. In kind it is cell-based, mouse. To be noted: for luciferase activity, Fold: relative to pSFM 21; for luciferase activity, Average: transient transfection. An excerpt:
Reporter plasmids pSFM 20 (goosecoid promoter luciferase+), pSFM 21 (promoterless luciferase+), pSFM 23 (CMV promoter luciferase+) and pSFM 25 (TRE luciferase+) were transiently transfected into either P19 or P19-pSFM 7 (Goosecoid TET/OFF) cells to test the effectiveness of the TET-OFF genetic switch driven by goosecoid promoter.

In a further data set the test system is P19 cells. Kind of data set: Luciferase activity of reporter constructs transiently transfected in P19 cells. The format is cell-based, mouse. Conditions: for luciferase activity compared to the promoterless construct (pSFM 21) / luciferase activity, Average / luciferase activity, Fold: P19 cells; for luciferase activity compared to the promoterless construct (pSFM 21): transient; for luciferase activity, Average: transient transfection; for luciferase activity, Fold: relative to pSFM 21. Here is the method: For transient transfection assays, P19 cells were cultured on gelatinized dishes in DMEM supplemented with 10% fetal bovine serum. Cells (0.3 million per well in 6-well cluster plates) were transfected with 5 μg reporter plasmid using transfection reagent ‘Geneporter’ from Gene Therapy Systems according manufacturer's recommendation.
as §1
P19 cells were transiently transfected in 6 well plates with pSFM 20 (goosecoid promoter-luciferase), pSFM 21 (promoterless luciferase) and pSFM 23 (CMV promoter-luciferase) using Gene Porter. Cells were harvested at various times post-tranfection and assayed for luciferase activity using a Promega kit (Cat. # E1501) in a Top Count NXT luminometer. […]

The test system of data set [2] is P19-pSFM 7 cells. Kind of data set: Luciferase activity of pSFM 25 in P19 clones stably integrated with pSFM 7. The format is cell-based, mouse. Here is the method:
Stably integrated P19 clones were obtained by using BioRad Gene Pulser II electroporation system. 30 μg DNA electroporated into 10 million cells under following conditions 960 μF and 0.16 kV in a 0.4 cm cuvette (0.4 kV/cm). The next day normal media were replaced with appropriate selection media (300 μg/ml G418).
Selection of a P19 cell line stably integrated with a goosecoid-dependent TET-OFF transactivator P19 cells were electroporated with pSFM 7 (Goosecoid promoter-TET/OFF) linearised with ApaLI and selected for stable integration.
Table 20 showes the luciferase activities of pSFM 25 (TRE luciferase+) shown in counts per second (cps) of transiently transfected in P19-pSFM 7 cells.
Addition of doxycycline at 1 μg/ml reduced luciferase activity from pSFM 25 in this clone by 90 fold. This clone, containing stably integrated pSFM 7 was therefore designated P19-pSFM 7 and used for further testing.

Consider “pHSP-GUS: expresses GUS under the control of the D. melanogaster heat shock promoter (SEQ ID NO:21)”, for which the GUS activity in the data set on Pacific oyster larvae (electroporation, heat shock) is on record as 83.2 ± 5.4 fluorescence units/μg protein; with Pacific oyster larvae (electroporation, no heat shock), 10.5 ± 0.5 fluorescence units/μg protein; in the data set on Pacific oyster larvae (no electroporation, heat shock), 4.5 ± 0.5 fluorescence units/μg protein. Moreover, the “GUS activity relative to controls” value is 19.8 in the data set with Pacific oyster larvae (electroporation, heat shock); 2.5 in the data set with Pacific oyster larvae (electroporation, no heat shock); 1.1 with Pacific oyster larvae (no electroporation, heat shock). Also, the “% arrested development” value came out at 5 ± 3% in the data set on HoxCG1 (No doxycycline), 4 ± 3% in the data set on HoxCG1 (With doxycycline (5 μg/μl)), 6 ± 2% with HoxCG1 gene (no heat shock) and 8 ± 3% in the data set with HoxCG1 gene (with heat shock (one hour at 3 hours post fertilization)).
Consider “pSFM 5: Tet-responsive expression vector pTRE-goosecoid double strand RNA”, for which the “intensity or number of cells expressing RFP in the nucleus” value (shortened to “intensity or number”) in the data set on goosecoid is “significant difference could not be detected”.
On to “pSFM 8: pCMV promoter expressing goosecoid antisense RNA”, for which the “intensity or number” value in the data set on goosecoid is “significant difference could not be detected”.
Consider “pSFM 9: Tet-responsive expression vector pTRE-goosecoid antisense RNA”, for which the “intensity or number” value in the data set on goosecoid is on record as “significant difference could not be detected”.
As to “pSFM 20: goosecoid promoter expressing luciferase+ protein”, the figures for the “luciferase activity, Fold” value in the data set with P19-pSFM 7 cells [1] and in the data set with P19 cells were 6 and 5, respectively. For the same substance, the entries for the “luciferase activity, Average” value in the data set on P19-pSFM 7 cells [1] and in the data set on P19 cells were 365 and 610, respectively. The luciferase activity amounted to 1263 cps in the data set on P19 cells (24 hours post-transfection), 3707 cps in the data set with P19 cells (48 hours post-transfection) and 1692 cps in the data set with P19 cells (72 hours post-transfection). Also, the “luciferase activity compared to the promoterless construct (pSFM 21)” value in the data set with P19 cells came to 6 fold.
With pSFM 21: promoterless luciferase+, the “luciferase activity, Fold” value in the data set with P19-pSFM 7 cells [1] and with P19 cells was 1 in each case. Also, the “luciferase activity, Average” value came to 60 in the data set with P19-pSFM 7 cells [1] and 121 in the data set with P19 cells. Also, the luciferase activity in the data set on P19 cells (24 hours post-transfection) is given as 254 cps; in the data set on P19 cells (48 hours post-transfection), 604 cps; with P19 cells (72 hours post-transfection), 252 cps.
Turning to “pSFM 23: pCMV promoter expressing luciferase+”, the “luciferase activity, Fold” value in the data set with P19-pSFM 7 cells [1] is 267; in the data set with P19 cells, 367. Also, the entries for the “luciferase activity, Average” value with P19-pSFM 7 cells [1] and with P19 cells were 16031 and 44491, respectively. Also, the luciferase activity turned out to be 78778 cps with P19 cells (24 hours post-transfection), 145403 cps with P19 cells (48 hours post-transfection) and 49936 cps with P19 cells (72 hours post-transfection). The “luciferase activity compared to the promoterless construct (pSFM 21)” value in the data set on P19 cells is 200-300 fold.
For “pSFM 25: Tet-responsive expression vector pTRE-luciferase+”, the luciferase activity turned out to be 54858 cps in the data set on P19-pSFM 7 cells [2] (clone 9, with doxycycline); 582529 cps with P19-pSFM 7 cells [2] (clone 9, without doxycycline); 4396 cps with P19-pSFM 7 cells [2] (clone 12, with doxycycline); 417268 cps in the data set with P19-pSFM 7 cells [2] (clone 12, without doxycycline); 48260 cps with P19-pSFM 7 cells [2] (clone 29, with doxycycline); 616604 cps in the data set with P19-pSFM 7 cells [2] (clone 29, without doxycycline). Also, the luciferase activity is reported as 19548 cps in the data set with P19-pSFM 7 cells [2] (clone 32, with doxycycline); 272888 cps in the data set on P19-pSFM 7 cells [2] (clone 32, without doxycycline); 8013 cps in the data set with P19-pSFM 7 cells [2] (clone 46, with doxycycline); 703470 cps in the data set with P19-pSFM 7 cells [2] (clone 46, without doxycycline). The entries for the “luciferase activity, Fold” value in the data set on P19-pSFM 7 cells [1] and in the data set on P19 cells were 6 and 1.5, respectively. In addition, the “luciferase activity, Average” value in the data set with P19-pSFM 7 cells [1] is 368; with P19 cells, 183.
